This note sets out measurements from US20050288347A1, “Certain triazole-based compounds, compositions, and uses thereof” (priority 2004, published 2005).

Entries after “also recorded” stand apart in the source; their conditions may differ.

One assay concerns the target protein kinase. Kind of assay: HTS ATP-utilizing enzyme assay, off-chip mobility-shift format (Caliper HTS 250). Type of assay: biochemical, human. To be noted: kinase(s) for which the compound exhibits protein kinase inhibitory activity; test compound 10 μM; active = greater than three-sigma from the mean activity of inactive compounds. An excerpt:
The following procedures describe the reagent and plate preparation for a HTS of an ATP-utilizing enzyme, such as a protein kinase, run in an off-chip mobility-shift assay format. The following provides an HTS protocol for running a protein kinase HTS screen on a Caliper HTS 250 microfluidics system. The following parameters are dependent on the protein kinase used and can be determined by one skilled in the art as part of a typical assay development process. For example, the peptide substrate used can be identified from the current literature, by screening a peptide library of potential protein kinase substrates, or by other applicable means accepted in the field.
The following table provides typical screen assay parameters appropriate for a Caliper HTS 250 microfluidics system.
The reagents and buffers listed in the following table are generally applicable for developing and running an HTS screen on a human protein kinase using the Caliper HTS 250 system.
The following reagents were prepared using the previously described buffers.
A 2× Master Buffer solution was prepared by combining 200 mL of 1 M HEPES, pH 7.5, 2 mL of 10% Triton X-100, 20 mL of 10% BSA, and 778 mL of H2O.
Assays to determine the kinase inhibitory activity of chemical entities of the present disclosure were performed using a Caliper HTS 250 microfluidics device, Greiner U-bottom assay plates, a Multidrop for transfer of reagents, and Biomek FX (AMNCBM03) software. Initially, 2.4 μL of a 1 mM solution of a test compound in 100% DMSO was added to a well of the Greiner U-bottom plate. A single Greiner U-bottom plate having 24×16 wells could include multiple test compounds. […] Using the Biomek FX, 10 μL of 0.5 M EDTA was added by the span-8 to wells, indicated as 100% Control and 2.4 μL of 100% DMSO was added by the span-8 to wells, indicated as 0% Control. […] The total reaction volume in each well was 25 μL, and the concentration of the test compound was 10 μM. The assay plate was incubated for 2.5 hrs at 20° C. to 22° C. […] The inhibition of the ATP-utilizing enzyme, such as a particular protein kinase, was determined by measuring the ratio of the peptide substrate to phosphorylated product for each well of the assay plate using the Caliper HTS 250 system.
The use of three-sigma statistical limits represents a conservative method for declaring potential hits among targets. The three-sigma activity, as well as the mean population activity, can be different for each target enzyme.
On to `Cc1ccc(-n2c(SCC(=O)O)nnc2-c2ccc(Cl)cc2)cc1` [2-(5-(4-chlorophenyl)-4-p-tolyl-4H-1,2,4-triazol-3-ylthio)acetic acid], for which the Kinase result is “DAPK1 and AKT1”.
As to `Cn1c(CNc2cccc(Cl)c2)nnc1SCC#N`, the Kinase entry is “AURORA-A”.
Turning to `O=C(CSc1nnc(-c2ccc([N+](=O)[O-])cc2)[nH]1)c1ccccc1` [2-(5-(4-nitrophenyl)-4H-1,2,4-triazol-3-ylthio)-1-phenylethanone], the Kinase result is reported as “FLT-3; also recorded: GSK3-β; also recorded: AURORA-A”.
As for `Cc1ccc(NCc2nnc(SCC(=O)Nc3ccc(C)cc3Br)n2-c2ccccc2)cc1`, the Kinase result is “AURORA-A”.
Turning to `CCOC(=O)c1c(NC(=O)CSc2nnc(-c3ccccc3O)n2CCc2ccccc2)sc(C)c1C`, the Kinase result is given as “CDK2-cyclinA”.
The same measure, in the same setting: the same measure for `COc1ccc(C(=O)CSc2nnc(C3CCCCC3)n2C)cc1`: “SYK”.
Regarding `O=C(CSc1nnc(-c2cccnc2)n1Cc1ccccc1)CC(=O)Nc1ccccc1`, the Kinase result is “AURORA-A”.
The same measure, in the same setting: next, `COc1ccc(OCc2nnc(SCC(=O)Nc3ccccc3OC)n2C)cc1`: “PDGFRR-α and PKA”.
On the same count and under the same terms, the same measure for `Cn1c(SCC(=O)c2ccccc2)nnc1-c1ccncc1` [2-(4-methyl-5-(pyridin-4-yl)-4H-1,2,4-triazol-3-ylthio)-1-phenylethanone]: “PKA and MSK1 and AURORA-A”.
As for `C=C(C)Cn1c(SCC(=O)O)nnc1-c1ccco1` [2-(5-(furan-2-yl)-4-(2-methylallyl)-4H-1,2,4-triazol-3-ylthio)acetic acid], the Kinase result was “HCK and CHEK2”.
Regarding `COc1ccc(NCc2nnc(SCC#N)n2-c2ccccc2OC)cc1`, the Kinase result is on record as “FYN”.
On to `CCn1c(SCC(=O)O)nnc1-c1cc2c(C)nn(-c3ccccc3)c2s1`, for which the Kinase entry is given as “FYN”.
On the same count and under the same terms, the same measure for `O=C(CSc1nnc(-c2ccccc2O)n1Cc1ccccc1)N(c1ccccc1)c1ccccc1`: “CDK2-cyclinA; also recorded: AURORA-A”.
Regarding `COc1ccc(OCc2nnc(S)n2-c2ccc(C)cc2)cc1` [5-((4-methoxyphenoxy)methyl)-4-p-tolyl-4H-1,2,4-triazole-3-thiol], the Kinase entry was “AURORA-A; also recorded: GSK3-α”.
On the same count and under the same terms, the same measure for `Cc1cc(C)nc(SCc2nnc(SCC(=O)Nc3cccc(C(F)(F)F)c3)n2C)n1`: “CDK1”; for `O=C(CSc1nnc(-c2ccncc2)[nH]1)c1c[nH]c2ccccc12` [1-(1H-indol-3-yl)-2-(5-(pyridin-4-yl)-4H-1,2,4-triazol-3-ylthio)ethanone]: “CHEK2 and AURORA-A and PKA”.
The same measure, in the same setting: the same measure for `COc1ccc(-n2c(SC(C)C(=O)Nc3c(C)cccc3C)nnc2-c2ccc(O)cc2)cc1` (stereo not shown): “AKT1”; for `CCn1c(SCC(=O)Nc2sc3c(c2C#N)CCCC3)nnc1-c1ccc(O)cc1`: “AURORA-A”; for `COCCn1c(SCC(=O)c2ccccc2)nnc1-c1ccc(OC)cc1`: “AKT1”.
Regarding `CC(C)(C)c1nnc(SCC(=O)c2ccc3c(c2)OCCO3)[nH]1`, the Kinase entry is on record as “DYRK2; also recorded: GSK3-α”.
The same measure, in the same setting: next, `CCn1c(SCC(=O)Nc2sc(C)c(C)c2C#N)nnc1-c1ccc(S(=O)(=O)N2CCOCC2)cc1`: “DAPK1”; `COc1ccc(-c2nnc(SCC(=O)Nc3ccccc3)n2-c2ccccc2)cc1`: “PRAK and CHEK2”.
Still for that read-out and setting: next, `CCn1c(CNc2cccc(C(F)(F)F)c2)nnc1SCC(=O)Oc1ccc(C)cc1`: “CDK2-cyclinA and CDK1 and CHEK2”.
The same measure, in the same setting: the same measure for `O=C(CSc1nnc(-c2ccc(O)cc2)n1Cc1ccco1)N1CCCc2ccccc21`: “GSK3-β; also recorded: GSK3-α”; for `COc1ccc(C(=O)CSc2nnc(-c3cc4ccccc4cc3O)n2Cc2ccco2)cc1`: “AURORA-A”; for `CCOC(=O)CSc1nnc(-c2ccccc2OC)n1C` [ethyl 2-(5-(2-methoxyphenyl)-4-methyl-4H-1,2,4-triazol-3-ylthio)acetate]: “AURORA-A and FYN”.
`CCOC(=O)c1ccc(NC(=O)CSc2nnc(-c3ccc(O)cc3)n2C)cc1`: the Kinase entry is “GSK3-β; also recorded: AURORA-A; also recorded: GSK3-α”.
Same read-out and setting: next, `COc1ccc(NCc2nnc(SCC(=O)Nc3ncc(C)s3)n2-c2ccccc2)cc1`: “PDGFRR-α and FYN”; `CCn1c(S)nnc1COc1ccc(OC)cc1` [4-ethyl-5-((4-methoxyphenoxy)methyl)-4H-1,2,4-triazole-3-thiol]: “GSK3-β; also recorded: GSK3-α; also recorded: CDK2-cyclinE”.
Same read-out and setting: next, `CCOC(=O)CSc1nnc(CSc2nc3ccccc3s2)n1C`: “CSK”; `CN(C)c1cccc(OCc2nnc(S)n2-c2ccccc2)c1` [5-((3-(dimethylamino)phenoxy)methyl)-4-phenyl-4H-1,2,4-triazole-3-thiol]: “GSK3-α”.

Still in this assay, the particulars now being: test compound 10 μM; active = activity greater than three-sigma from the mean of the predominately inactive population for that enzyme.
As for `O=C(CSc1nnc(-c2ccncc2)n1-c1ccc(F)cc1)NN(O)C(=O)c1ccccc1`, the “protein kinase against which the compound exhibits inhibitory activity (Table 3)” value is recorded as “FYN”.
Still for that read-out and setting: the same measure for `COc1ccccc1-n1c(SCc2cccc(C(=O)O)c2)nnc1-c1cccc(Cl)c1`: “ROCK2”; for `COc1ccc(C(=O)NNC(=O)CSc2nnc(C)n2CCc2ccccc2)cc1`: “DGFRR-α”; for `CN(C)CCCSc1nnc(-c2cccc(C(F)(F)F)c2)[nH]1`: “CHEK2; also recorded: c-TAK1; also recorded: GSK3-β”.
The same measure, in the same setting: the same measure for `c1cncc(-c2nnc(SCC3CCCO3)[nH]2)c1` (stereo not shown) [3-(5-((tetrahydrofuran-2-yl)methylthio)-4H-1,2,4-triazol-3-yl)pyridine]: “AURORA-A”; for `COc1ccc(C(=O)NNC(=O)CSc2nnc(CNc3cccc(Cl)c3)n2CCc2ccccc2)cc1`: “PDGFRR-α and GSK3-β and CDK1”; for `O=[N+]([O-])c1ccc(CSc2nnc[nH]2)cc1` [3-(4-nitrobenzylthio)-4H-1,2,4-triazole]: “MSK2 and SRC”.
Still for that read-out and setting: next, `Cc1ccc(-n2c(SCCO)nnc2-c2ccncc2)cc1` [2-(5-(pyridin-4-yl)-4-p-tolyl-4H-1,2,4-triazol-3-ylthio)ethanol]: “GSK3-β; also recorded: GSK3-α”; `C=CCSc1nnc(Cn2cnc3ccccc32)n1C`: “HCK”; `COc1ccc(-c2nnc(SCC(O)CO)[nH]2)cc1` (stereo not shown) [3-(5-(4-methoxyphenyl)-4H-1,2,4-triazol-3-ylthio)propane-1,2-diol]: “AURORA-A; also recorded: FLT-3; also recorded: DYRK2”.
For the molecule `COc1ccccc1-n1c(SCc2ccc(Cl)nc2)nnc1-c1cccc(Cl)c1`, the “protein kinase against which the compound exhibits inhibitory activity (Table 3)” value is “ROCK2”.
Same read-out and setting: next, `CCn1c(SCc2ccc(Cl)cc2)nnc1-c1ccncc1` [4-(5-(4-chlorobenzylthio)-4-ethyl-4H-1,2,4-triazol-3-yl)pyridine]: “PKA and AURORA-A and MSK2”; `CCn1c(SCC(=O)NNC(=O)C2CCCCC2)nnc1-c1ccncc1`: “AURORA-A”; `O=C1c2ccccc2C(=O)N1CCSc1nnc(-c2ccccc2)[nH]1` [2-(2-(5-phenyl-4H-1,2,4-triazol-3-ylthio)ethyl)isoindoline-1,3-dione]: “AURORA-A; also recorded: GSK3-β; also recorded: GSK3-α”.
With `O=C1c2ccccc2C(=O)N1CCSc1nnc(-c2cccs2)[nH]1` [2-(2-(5-(thiophen-2-yl)-4H-1,2,4-triazol-3-ylthio)ethyl)isoindoline-1,3-dione], the “protein kinase against which the compound exhibits inhibitory activity (Table 3)” value is “AURORA-A; also recorded: GSK3-α; also recorded: DYRK2”.
Turning to `Cn1c(CCc2nc3ccccc3[nH]2)nnc1SCCN1CCCCC1`, the “protein kinase against which the compound exhibits inhibitory activity (Table 3)” value was “AURORA-A”.
In the case of `N#Cc1cccc(CSc2nnc(-c3cccs3)[nH]2)c1`, the “protein kinase against which the compound exhibits inhibitory activity (Table 3)” value is “AURORA-A; also recorded: GSK3-β; also recorded: GSK3-α”.
Still for that read-out and setting: the same measure for `CC(C)Sc1nnc(-c2ccc(NS(C)(=O)=O)cc2)n1C`: “CDK2-cyclinA”; for `CCSc1nnc(-c2ccc(O)cc2)n1Cc1ccccc1` [4-(4-benzyl-5-(ethylthio)-4H-1,2,4-triazol-3-yl)phenol]: “GSK3-β; also recorded: GSK3-α”; for `COc1ccccc1-n1c(SCCC(=O)O)nnc1C1CCCCC1`: “GSK3-α”.
On the same count and under the same terms, next, `COCCCn1c(SCc2ccc(Cl)cc2)nnc1-c1ccc(C(C)(C)C)cc1`: “DAPK1”.
